Source: publication PMC10994559 (PLOS Neglected Tropical Diseases, 2024)
Read-outs that look alike come from different tables or passages of the source.

What was measured:
[1] = system: L. infantum promastigotes; assay: L. infantum promastigote viability, resazurin reduction; type: cell-based, Leishmania infantum; conditions: for viability at 2.5 µM / viability at 25 µM: Leishmania infantum
Excerpt: (§1) The infectivity of the parasites was boosted by passaging in Balb/c mice and culturing the infected lymph nodes after six weeks. L. infantum (MHOM / BR / 76 / M4192) parasite was passaged in the same media formulation with 0.5% urine.

[2] = system: L. major promastigotes; assay: L. major promastigote viability, resazurin reduction; type: cell-based, Leishmania major; conditions: for viability at 25 µM: Leishmania major
Excerpt: as §1

[3] = Cytotoxicity assay J774, resazurin reduction; type: cell-based, murine; conditions: mouse, J774 macrophage cells
Experimental: (§2) Mammalian cell lines (J774 and HepG2) were passaged in RPMI media supplemented with MEM, Pen-Strep (1%) and 10% FCS. Cultures were kept at 37°C incubator with 5% CO2 in filter-cap flasks.
(§3) Murine macrophage cells (J774) and human hepatocyte carcinoma HepG2 cells were seeded at 0.5x10^5 cell/well in 384 well plates in triplicate, exposed to serial dilution of compounds, dispensed using an Echo 650 acoustic dispenser (Labcyte). After incubation for 72 h at 37°C, 5% CO2, cell viability was determined using fluorescence resazurin reduction assay (λEx: 550 nm; λEm: 590 nm).

[4] = system: T. brucei brucei BSF; assay: T. brucei BSF viability, resazurin reduction; type: cell-based, Trypanosoma brucei brucei; conditions: for EC50: ± SD (Table 2) / ± SE (S3 Table)
Experimental: T. brucei brucei (strain 427 Lister) blood stream form (BSF) parasites were passaged in complete HMI-9 media supplemented with 10% FCS, Pen-Strep (0.1%) and 2-mercaptoethanol (0.014 v/v) and kept in a 37° C CO2 incubator in filter-cap flasks.
(§4) Viability of T. brucei brucei BSF and T. cruzi trypomastigotes was assayed with fluorescence resazurin reduction assay, essentially as described above. […] Next, selected compounds were tested at 2.5 μM concentration, and promising compounds subjected to 18 concentrations dose response analyses. AN3057 and AmB were used as a control drug in T. brucei and T. cruzi, respectively.

[5] = system: T. cruzi trypomastigotes; assay: T. cruzi viability, resazurin reduction; type: cell-based, Trypanosoma cruzi; conditions: for viability at 2.5 µM / viability at 25 µM: Trypanosoma cruzi
Experimental: T. cruzi (Y strain) trypomastigotes were passaged in liver infusion broth media supplemented with tryptose, NaCl, Na2HPO4, KCl, glucose, hemin, Pen-Strep (1%), 10% FCS (pH: 7.2) and kept at 28°C.
as §4

[6] = system: intracellular L. infantum amastigotes; assay: Parasite rescue assay (intramacrophage, J774 infected with L. infantum); type: cell-based, Leishmania infantum; conditions: for viability at 25 µM: J774, 25 µM, intracellular amastigote, read-out: viability, intracellular L. major amastigote (25 µM)
[7] = system: L. major axenic amastigotes; assay: L. major axenic amastigote viability, resazurin reduction
Experimental: L. major LV561(MHOM/IL/67/LRC-L137 JERICHO II) amastigotes were passaged in Grace insect medium supplemented with NaHCO3, 0.1% amikin and 20% of FCS (pH: 5.4) and kept at 33°C.
Exponential growth phase promastigotes of L. major or L. infantum and axenic amastigotes (L. major) were harvested and seeded in 384 well plates (white, non-transparent, tissue culture treated, flat bottom; Corning) (0.5x10^5 cells per well). Compounds were pre-dispensed into the plate with an Echo 650 acoustic dispenser (Beckman Coulter). After 72h incubation, resazurin was added (1:10 v/v) from a […] stock in PBS, followed by incubation for six hours. Then, fluorescence intensity was measured using a microplate reader (Synergy H1, BioTek) with excitation filter: 550 nm and emission filter: 590 nm. Efficient compounds were selected for the next round of viability assay with 2.5 μM concentrations of the compounds. […] All experiments were performed with AmB as a positive control drug in parallel.
Axenic amastigotes, the relevant form that persists in the infected host, were generated in the lab through established procedures, employing harsh pH (pH 5) and high temperature (33°C) conditions.

[8] = system: E. histolytica; assay: E. histolytica viability, ATP luminescence (Cell titer glo); type: cell-based, Entamoeba histolytica; conditions: for EC50 / viability at 2.5 µM / viability at 25 µM: Entamoeba histolytica; for EC50: 9 to 16-point dose response
Experimental: Entamoeba histolytica (strain B2-5) was passaged in TY-1 medium (Trypticase peptone BBL, Yeast extract BBL, glucose, NaCl, K2HPO4, KH2PO4, cysteine, ascorbic acid, ammonium iron citrate, adult bovine serum, Diamond tween 80, penicillin G, amikacin (pH:6.8)) and kept in 37°C incubator in completely filled tubes with closed lid.
Viability of E. histolytica was assayed via a luminescence assay based on ATP quantification in the live cells. Briefly, 2.5x10^4 cell/ml were exposed to 25 μM of compounds in 96 well plates (non-transparent, tissue culture treated, flat bottom; SPL Life Sciences) in triplicate for 48h. Plates were incubated in sealed anaerobic bags (Oxoid AGS) together with an Anaerogen compact bag (Thermo Scientific) and anaerobic indicator (Thermo Scientific) at 37°C. Then, Cell titer glo reagent (Promega) was added to the reaction (1:5) according to manufacturers’ instruction. After 15 min of orbital shaking, followed by 10 min incubation at RT, ATP-bioluminescence was quantified at RT using a Synergy H1 plate reader (Synergy H1, BioTek). Metronidazole was included as control drug in all the assays for E. histolytica. Test compounds indicating significant growth reduction in the primary screen were subjected to potency determination. These secondary screens were essentially carried out as detailed above, but with a 9 to 16-point concentration range of the test compounds spanning 0.01–100 μM.

[9] = system: Murine macrophage cells (J774); assay: Cytotoxicity assay J774, resazurin reduction; type: cell-based
Experimental: as §2, §3

[10] = system: intracellular L. infantum amastigotes; assay: Parasite rescue assay (intramacrophage, J774 infected with L. infantum); type: cell-based, Leishmania infantum; conditions: Leishmania infantum
Experimental: After 24 h incubation, cells were washed five times with serum free RPMI and exposed to a serial dilution of test compounds, prepared using an acoustic dispenser (Echo 650, Labcyte), in RPMI (2% FCS). After two days, cells were washed thrice, and 20 μl of 0.05% SDS in RPMI was added upon removal of the supernatant. Upon incubation under orbital shaking for 30 seconds, cell lysis was stopped by addition of 180 μl M199 medium supplemented with 10% FCS. […] Then, fluorescence intensity of the samples was measured with a microplate reader (Synergy H1, BioTek) with λEx: 550 nm and λEm: 590 nm. Percent of viability was calculated according to cell only and media controls.
J774A.1 cells (J774) were infected with L. infantum metacyclic promastigotes. […] After controlled lysis of the infected macrophages, the released parasites were quantified using a resazurin based viability assay.

[11] = 2.5 µM, sheet LTC_compound_viability, value ± spread, read-out: viability, L. infantum promastigote (2.5 µM)
[12] = 25 µM, sheet LTC_compound_viability, value ± spread, read-out: viability, L. infantum promastigote (25 µM)
[13] = 72 h, read-out: viability, L.major promastigote (25 µM)
[14] = 25 µM, read-out: viability, L.major promastigote (25 µM)
[15] = read-out: viability, J774 (2.5 µM)
[16] = read-out: viability, J774 (25 µM)
[17] = Trypanosoma brucei, 2.5 µM, read-out: viability, T.brucei (2.5 µM)
[18] = Trypanosoma brucei, 25 µM, read-out: viability, T.brucei (25 µM)
[19] = Trypanosoma brucei, read-out: EC50 T. brucei BSF, dose response, triplicate
[20] = 2.5 µM, read-out: viability, T.cruzi (2.5 µM)
[21] = 25 µM, read-out: viability, T.cruzi (25 µM)
[22] = Leishmania major, read-out: viability, L.major amastigote (25 µM)
[23] = read-out: viability, E.histolytica (2.5 µM)
[24] = read-out: viability, E.histolytica (25 µM)

Compound	viability at 2.5 µM [1, 11] [%]	viability at 25 µM [1, 12] [%]	viability at 25 µM [2, 13] [%]	viability at 25 µM [2, 14] [%]	viability at 72 h, 2.5 µM [3, 15] [%]	viability at 72 h, 25 µM [3, 16] [%]	viability at 2.5 µM [4, 17] [%]	viability at 25 µM [4, 18] [%]	EC50 [4, 19] [µM]	viability at 2.5 µM [5, 20] [%]	viability at 25 µM [5, 21] [%]	viability at 25 µM [6] [%]	viability at 25 µM [7, 22] [%]	EC50 ([8]; 48 h) [µM]	viability at 2.5 µM [8, 23] [%]	viability at 25 µM [8, 24] [%]	further results
O=C(Cc1ccc2ccccc2c1)NC(Cc1ccccc1)C(O)CN1CCN(Cc2ccccc2)CC1 (centres unmarked) [LTC-6]	100.6 ± 0.6	0.37 ± 0.06	66.2 ± 3.33	0.62 ± 0.39	106 ± 6.66	2.99 ± 2.56	91 ± 5.89	2.92 ± 1.26	5.6 ± 1.7	56.4 ± 4.53	18.4 ± 1.57	47.3 ± 9.73	73.5 ± 1.98	4.9 ± 1.8	86.8 ± 20.5	2.71 ± 1.39	–
O=C(Cc1cccc(C(F)(F)F)c1)NC(Cc1ccccc1)C(O)CN1CCN(Cc2ccccc2)CC1 (centres unmarked) [LTC-8]	101 ± 1.24	0.96 ± 0.46	67.5 ± 1.55	0.28 ± 0.16	102 ± 8.6	4.16 ± 2.39	98.5 ± 6.21	3.15 ± 1.45	7.3 ± 1.7	59.3 ± 1.4	33.8 ± 0.8	67.2 ± 5.73	75.1 ± 2.03	4.4 ± 1.7	60.3 ± 6.76	0.54 ± 0.81	–
O=C(CCc1ccc(Br)cc1)NC(Cc1ccccc1)C(O)CN1CCN(Cc2ccccc2)CC1 (centres unmarked) [LTC-10]	100.8 ± 0.96	0.85 ± 0.33	65.1 ± 3.01	0.71 ± 1	99.9 ± 5.33	2.99 ± 1.94	99.8 ± 6.25	2.86 ± 1.31	6 ± 1.7	61.1 ± 6.21	21.5 ± 1.69	33.7 ± 12	74.2 ± 2.26	6.5 ± 1.7	73.2 ± 7	4.28 ± 0.62	–
CC[C@@H](C)[C@H](c1nc2ccccc2n1Cc1cn(-c2c(F)c(F)c(F)c(F)c2F)nn1)N1C(=O)c2ccc(C)cc2C1=O [PHT-80]	–	–	–	–	–	–	–	–	0.4	–	–	–	–	–	–	–	viability at 2.5 µM ([1]; 2.5 µM, 72 h, vs non-treated cells, read-out: Residual viability, L. infantum promastigote (2.5 µM)): 90.2 ± 3.63%; viability at 25 µM ([1]; 25 µM, 72 h, vs non-treated cells, ± SD, triplicate, read-out: Residual viability, L. infantum promastigote (25 µM)): 2.87 ± 0.48%; viability at 25 µM ([2]; 25 µM, 72 h, vs non-treated cells, read-out: Residual viability, L.major promastigote (25 µM)): 11.3 ± 1.4%; EC50 ([9]; Mus musculus, J774, 72 h, cytotoxicity, 72 h): > 25 µM; viability at 72 h, 2.5 µM ([3]; cytotoxicity, 72 h, read-out: Residual viability, J774 (2.5 µM)): 124 ± 4.4%; viability at 72 h, 25 µM ([3]; cytotoxicity, 72 h, read-out: Residual viability, J774 (25 µM)): 78.1 ± 6.86%; Residual viability, T.brucei (2.5 µM) ([4]; BSF, 2.5 µM, 72 h): 3.41±0.28%; viability at 25 µM ([4]; Trypanosoma brucei, 72 h, BSF, 25 µM, 72 h, read-out: Residual viability, T.brucei (25 µM)): -2.86 ± 1.75%; viability at 2.5 µM ([4]; Trypanosoma brucei, 72 h, read-out: Residual viability, T.brucei (2.5 µM), BSF, 2.5 µM, 72 h): 3.4%; EC50 ([4]; read-out: EC50 T. brucei BSF, dose response, triplicate): 0.5 µM; EC50 ([4]; read-out: EC50 T. brucei BSF, dose response, triplicate, listed as PH-80): 0.45 µM; viability at 2.5 µM ([5]; 72 h, 2.5 µM, 72 h, read-out: Residual viability, T.cruzi (2.5 µM)): 72.4 ± 2.05%; viability at 25 µM ([5]; 72 h, read-out: Residual viability, T.cruzi (25 µM), 25 µM, 72 h): 25.7 ± 3.29%; viability at 2.5 µM ([7]; Leishmania major, 72 h, read-out: Residual viability, L.major amastigote (2.5 µM)): 50.9 ± 3.89%; viability at 25 µM ([7]; Leishmania major, 72 h, read-out: Residual viability, L.major amastigote (25 µM)): 1.7%; EC50 ([7]; Leishmania major, read-out: EC50 L. major axenic amastigote): 2.5 ± 1.7 µM; EC50 ([10]; J774, read-out: EC50 L. infantum rescue assay, intramacrophage (J774), 18 concentrations): > 10 µM; viability at 25 µM ([10]; J774, rescue assay in J774, 25 µM, read-out: Residual viability, intracellular L. infantum amastigote (25 µM)): 50.6 ± 13.8%; viability at 2.5 µM ([8]; 2.5 µM, 48 h, read-out: Residual viability, E.histolytica (2.5 µM)): 61.8 ± 13.1%; viability at 25 µM ([8]; 25 µM, 48 h, read-out: Residual viability, E.histolytica (25 µM)): 45.2 ± 18.6%
LTC-4	–	–	–	–	–	–	–	–	–	–	–	–	–	–	–	–	viability, L. infantum promastigote (2.5 µM) ([1]; 2.5 µM, sheet LTC_compound_viability, value ± spread): 85.51±1.79; viability, L. infantum promastigote (25 µM) ([1]; 25 µM, sheet LTC_compound_viability, value ± spread): 24.04±0.45; viability, L.major promastigote (25 µM) ([2]; 25 µM): 1.56±2.86; viability, L.major promastigote (25 µM) ([2]; head prints 25 µM, second of two columns with this head): 60.14±7.43; viability, J774 (2.5 µM) ([9]; 2.5 µM): 100.11±5.45; viability, J774 (25 µM) ([9]; 25 µM): 144.21±37.63; viability, T.brucei (2.5 µM) ([4]; 2.5 µM): 100.44±5.5; viability, T.brucei (25 µM) ([4]; 25 µM): 89.28±12.34; viability, T.cruzi (2.5 µM) ([5]; 2.5 µM): 57.84±2.64; viability, T.cruzi (25 µM) ([5]; 25 µM): 58.59±2.21; viability, intracellular L. major amastigote (25 µM) ([6]; 25 µM): 76.09±31.52; viability, L.major amastigote (25 µM) ([7]; 25 µM): 76.6±1.33; viability, E.histolytica (2.5 µM) ([8]; 2.5 µM): 68±7.58; viability, E.histolytica (25 µM) ([8]; 25 µM): 71.3±5.74
